Patent US20110212235A1, “ANTIMICROBIAL SALT SOLUTIONS FOR CHEESE PROCESSING APPLICATIONS” (priority 2006, published 2011)
Marks after values point to notes of the source that are not given here.

How the values were obtained:
Type in all cases: cell-based
[1] = test system: L. monocytogenes; assay: L. monocytogenes cocktail challenge of surfactant/salt solutions at 2° C.; conditions: after 4 hours in solution at 2° C.
Experimental: Tests were generally run according to the following procedure:
(§1) 1. Inoculate a separate tube containing approximately 10 ml of Brain Heart infusion (BHI) broth with the following L. monocytogenes strains: H2446 (CDC Global Standard), Scott A (serotype 4b), 12243 (serotype 1/2a), and two strains isolated from the environment of a cooked meat and poultry facility, designated WP1, and WP4. Incubate the tubes at least 5 days at 7-10° C.+/−2° C. 2. Assume the growth to be 10^9 cfu/ml. Serially dilute each culture in cold (˜7° C.). Butterfield's Phosphate Buffered Water (PBW) to 10^8 cfu/ml (1:10). Since five cultures of L. monocytogenes are being used as a cocktail, begin the dilution series using 2.20 ml of each culture added to 99 ml of PBW. 3. Plate (−6, −7, −8) the diluted culture to get the starting count of the inoculum on Modified Oxford medium (MOX) using a thin agar overlay (TAL) technique (overlay with Trypticase Soy Agar [TSA]) to revive injured cells. 4. Add 1 ml of the diluted cocktail to 100 ml of cold test solution. 5. Mix the solutions well. 6. Determine the L. monocytogenes population at time 0 and 4 hours. Plate −1 (0.1 ml on 1 plate), −2, −3, and −4 dilutions using spread plates on MOX TAL with TSA. 7. Incubate the test solutions at test temperature for the duration of the experiment. 8. Incubate the MOX TAL with TSA plates at 20° C.+/−2° C. for 72+/−3 hours. Count representative colonies, which are black, and multiply by the dilution factor.

[2] = test system: L. monocytogenes; assay: L. monocytogenes kill in cold salt/acid/surfactant solutions; conditions: for Population at 4 hours: concentrations stated in the solution, no added acid, average of two runs where starred; for L. monocytogenes, Time 4 Hours / L. monocytogenes, Time 0: cold
Experimental: To study chilling brine application of the current embodiment, tests were run on 17% by weight solutions of formulas consisting of between 0.3% and 6.0% citric acid, between 50 and 500 ppm SLS, and between 94% and 99.7% sodium chloride. Test solutions were cooled to −7° C. and inoculated with several strains of L. monocytogenes.
An experiment was run to determine if solutions containing sodium chloride, sodium lauryl sulfate, and various acids would kill L. monocytogenes at cold temperatures. […] A 1.0 ml aliquot of this suspension was added to 100 ml of cold (−7° C.+2° C.) test solution and mixed well, providing an initial inoculum of 10^3 CFU/ml. The test solutions were incubated at −7° C.+/−2° C. for the duration of the experiment. At intervals of 0, 4, and 24 hours the L. monocytogenes populations in the test solutions were determined on Modified Oxford agar (MOX). MOX plates were incubated at 35° C.+/−2° C. for approximately 48 hours. Colonies were then counted and compared to the initial inoculum counts.
Each test solution was a 17% by weight solution of the listed formula prepared in soft water.
In another experiment, 17% by weight solutions of formulas containing various levels of sodium chloride, citric acid, and sodium lauryl sulfate were tested for effectiveness in killing L. monocytogenes at cold temperatures. The same test procedure was used as described above, except test solutions were plated on MOX with a Thin Agar Overlay of TSA (to aid in the recovery of injured cells).
In another experiment, two sets of solutions were tested. The first set (samples 1-12 in Table 10 below) was prepared in hard tap water and contained about 17.0% by mass of the formulation. These samples were inoculated with 10^3 CFU/ml L. monocytogenes by the same procedure as described above. A second set of samples was prepared from brine taken from a ready-to-eat meat processing operation. The recirculated brine had been used to chill packaged meat for one week. After a week of use the brine typically contains various types of aerobic psychotropic and mesophilic bacteria. This experiment was done in order to determine if the additives would kill the microorganisms naturally occurring in actual process brine from a plant. Since the spent chill brine samples already contained NaCl citric acid and/or SLS was added to provide an effective concentration of additive. One set of these samples (samples 13-17) were inoculated with 10^3 L. monocytogenes and the other set (samples 18-22) contained only the naturally occurring organisms in the spent chill brine. […] Other antimicrobials, such as quaternary ammonium compounds can lose significant activity in hard water, often necessitating further additives, such as EDTA as a chelating agent, to maintain antimicrobial activity.
Another set of experiments was done in order to determine the effectiveness of different acids and different types of surfactants in the antimicrobial salt formulations. In one experiment, test solutions containing ˜17% by weight of formulas containing various levels of sodium chloride, 100 ppm sodium lauryl sulfate, and various levels of different acids were tested for effectiveness in killing L. monocytogenes at cold temperatures. The same test procedure was used as described above (test solutions were plated on MOX TAL (Modified Oxford Medium with a Thin Agar Layer) with TSA). The controls were a solution of pure NaCl, a solution of a blend of 100 ppm SLS in NaCl, and a solution of a blend of 0.5% citric acid, 100 ppm SLS, and 99.5% NaCl.

[3] = test system: Escherichia coli ATCC 11229; assay: E. coli kill in acid/SLS solutions with and without salt; conditions: for % Kill of E. Coli: 0.6409 grams malic acid and 0.0107 grams sodium lauryl sulfate per liter, with 107.0 grams of the listed salt or without; for kill of E. coli by solution containing only the salt: only the salt and no other ingredient
Experimental: Ten percent by weight solutions were prepared of a formula of 0.6% citric or malic acid, 100 ppm SLS, and 99.4% sodium chloride. Solutions were also prepared containing an identical concentration of acid and SLS but no sodium chloride. […] A 1.0 ml aliquot of this suspension was added to 100 ml of test solution at room temperature and mixed well, providing an initial inoculum of 10^3 CFU/ml. After 30 minutes, the E. coli populations were enumerated by plating on tryptic soy agar (TSA), making serial dilutions as necessary in BPBW. Plates were incubated at 35° C.+/−2° C. for approximately 24 hours. Colonies were then counted and compared to the initial inoculum counts.
A test was run to determine if salts other than sodium chloride would show a synergistic antimicrobial effect with an acid and sodium lauryl sulfate. Solutions containing 0.6409 grams malic acid and 0.0107 grams sodium lauryl sulfate per liter were prepared with and without 107.0 grams of various salts (added on an anhydrous basis). Solutions were inoculated with E. coli described above and the amount of bacterial kill was measured to determine if the added salt caused an increase in the effectiveness of the acid/surfactant active ingredients.

[4] = test system: L. monocytogenes; assay: L. monocytogenes challenge in beef plant chill brine at 4° C.; conditions: after 4 hours at 4° C.; surfactant added to beef plant brine, approximately 17% sodium chloride
Experimental: as §1
Several tests were carried out to determine the effectiveness of embodiments according to the invention in meat processing chill brines. In one experiment, brine was taken at the end of a production week from a brine chiller used in a ready to eat, cooked beef production line. The sodium chloride concentration in this brine was approximately 17%. Samples of the brine with and without added surfactant were inoculated with a cocktail of L. monocytogenes as per the procedure described above, incubated at 4° C. for four hours, and then plated to determine L. monocytogenes survival.

[5] = Table 2, different salts and salt concentrations
[6] = 17% by weight of formula of 99.7% sodium chloride, 0.3% citric acid, 500 ppm of listed surfactant

Molecule: [Cl-].[Na+] [20% NaCl (control), sodium chloride, reference compound]
- L. mono count ([1]; Table 1): 1.0 × 10^5 cfu/mL
- L. mono count [1, 5]: 4.0 × 10^5 cfu/mL
- Population at 4 hours [2]: 4.32 log cfu/mL

Molecule: [Cl-].[K+] [Potassium chloride]
- % Kill of E. Coli [3]: 18%
- kill of E. coli by solution containing only the salt [3]: no bacterial kill

Molecule: CCCCCCCCCCCCOS(=O)(=O)[O-].[Na+] [50 ppm SLS (no NaCl), sodium lauryl sulfate]
- Population at 4 hours [2]: 3.90* log cfu/mL

Molecule: [Ca+2].[Cl-].[Cl-] [Calcium chloride]
- % Kill of E. Coli [3]: 55%
- kill of E. coli by solution containing only the salt [3]: 26%

Molecule: sodium olefin sulfonate [25 ppm sodium olefin sulfonate]
- L. mono count [4]: 60 cfu/mL

Molecule: O=S(=O)([O-])[O-].[Mg+2] [Magnesium sulfate]
- % Kill of E. Coli [3]: 93%
- kill of E. coli by solution containing only the salt [3]: 10%

Molecule: sodium olefin sulfonate [12.5 ppm sodium olefin sulfonate]
- L. mono count [4]: 110 cfu/mL

Molecule: [Cl-].[Cl-].[Mg+2] [Magnesium chloride]
- % Kill of E. Coli [3]: 56%
- kill of E. coli by solution containing only the salt [3]: 61%

Molecule: sulfonated oleic acid, Na salt [50 ppm sulfonated oleic acid, Na salt]
- L. mono count ([1]; Table 1): 1.3 × 10^5 cfu/mL

Molecule: sodium olefin sulfonate [50 ppm sodium olefin sulfonate]
- L. mono count [1, 5]: 1.8 × 10^5 cfu/mL
- L. mono count [4]: 10 cfu/mL

Molecule: [Cl-].[Na+] [sodium chloride, reference compound]
- % Kill of E. Coli [3]: 78%
- kill of the test microorganisms ([3]; 10% solution of pure sodium chloride): does not provide any significant kill
- log reduction of the L. monocytogenes over a 24-hour period ([2]; brine of sodium chloride alone, 24-hour period): < 1 log

Molecule: polyoxyethylene-polyoxypropylene block polymer
- L. monocytogenes, Time 4 Hours [2, 6]: 610 CFU/ml
- L. monocytogenes, Time 0 [2, 6]: 820 CFU/ml

Molecule: fatty alkanolaminde [25 ppm fatty alkanolaminde]
- L. mono count [4]: <10 cfu/mL

Molecule: sodium xylene sulfonate
- L. monocytogenes, Time 4 Hours [2, 6]: 820 CFU/ml
- L. monocytogenes, Time 0 [2, 6]: 910 CFU/ml

Molecule: CC(=O)[O-].[Na+] [20% Sodium Acetate, Sodium Acetate, reference compound]
- L. mono count [1, 5]: 3.0 × 10^4 cfu/mL

Molecule: fatty alkanolaminde [12.5 ppm fatty alkanolaminde]
- L. mono count [4]: 40 cfu/mL

Molecule: sodium salt of sulfonated oleic acid
- L. monocytogenes, Time 4 Hours [2, 6]: 0 CFU/ml
- L. monocytogenes, Time 0 [2, 6]: 240 CFU/ml

Molecule: fatty alkanolamide
- L. monocytogenes, Time 4 Hours [2, 6]: 0 CFU/ml
- L. monocytogenes, Time 0 [2, 6]: 470 CFU/ml

Molecule: [Cl-].[Na+] [Salt control, reference compound]
- L. monocytogenes, Time 4 Hours ([2]; ˜17% solution of NaCl, 100 ppm SLS and listed acid to pH ˜3.6): 1380 CFU/ml
- L. monocytogenes, Time 0 ([2]; ˜17% solution of NaCl, 100 ppm SLS and listed acid to pH ˜3.6, MOX TAL): 850 CFU/ml

Molecule: O=S(=O)([O-])[O-].[Na+].[Na+] [Sodium sulfate]
- % Kill of E. Coli [3]: 87%
- kill of E. coli by solution containing only the salt [3]: no bacterial kill

Molecule: O=S(=O)([O-])[O-].[K+].[K+] [Potassium sulfate]
- % Kill of E. Coli [3]: 34%
- kill of E. coli by solution containing only the salt [3]: no bacterial kill

Molecule: sodium linear alkyl-benzene sulfonate
- L. monocytogenes, Time 4 Hours [2, 6]: 0 CFU/ml
- L. monocytogenes, Time 0 [2, 6]: 490 CFU/ml

Molecule: sodium linear alkylbenzene sulfonate
- L. mono count ([1]; Table 1): 5.9 × 10^3 cfu/mL
- L. mono count [4]: <10 cfu/mL

Molecule: nonylphenol ethoxylate [25 ppm nonylphenol ethoxylate]
- L. mono count [4]: <10 cfu/mL

Molecule: alkylpolyglucoside
- L. monocytogenes, Time 4 Hours [2, 6]: 0 CFU/ml
- L. monocytogenes, Time 0 [2, 6]: 280 CFU/ml

Molecule: sodium linear alkylbenzene [25 ppm sodium linear alkylbenzene]
- L. mono count [4]: <10 cfu/mL

Molecule: C12(branched) sodium diphenyl oxide disulfonate
- L. mono count [1, 5]: 3.1 × 10^4 cfu/mL

Molecule: O=C[O-].[Na+] [20% Sodium Formate, Sodium Formate, reference compound]
- L. mono count [1, 5]: 3.6 × 10^5 cfu/mL

Molecule: lauramine oxide [50 ppm lauramine oxide]
- L. mono count ([1]; Table 1): 3.6 × 10^3 cfu/mL
- L. mono count [1, 5]: 5.8 × 10^4 cfu/mL
- L. mono count [4]: <10 cfu/mL

Molecule: nonylphenol ethoxylate [50 ppm nonylphenol ethoxylate]
- L. mono count ([1]; Table 1): 1.3 × 10^5 cfu/mL
- L. mono count [4]: <10 cfu/mL

Molecule: CC(=O)[O-].[K+] [20% Potassium Acetate, Potassium Acetate, reference compound]
- L. mono count [1, 5]: 4.2 × 10^5 cfu/mL

Molecule: alkyl polyglucoside [50 ppm alkyl polyglucoside]
- L. mono count ([1]; Table 1): 9.6 × 10^4 cfu/mL

Molecule: alpha-olefin sulfonate
- L. monocytogenes, Time 4 Hours [2, 6]: 0 CFU/ml
- L. monocytogenes, Time 0 [2, 6]: 370 CFU/ml

Molecule: lauramine oxide
- L. monocytogenes, Time 4 Hours [2, 6]: 0 CFU/ml
- L. monocytogenes, Time 0 [2, 6]: 2 CFU/ml

Molecule: dodecyl diphenyl oxide disulfonate
- L. monocytogenes, Time 4 Hours [2, 6]: 0 CFU/ml
- L. monocytogenes, Time 0 [2, 6]: 0 CFU/ml

Molecule: nonylphenol ethoxylate
- L. monocytogenes, Time 4 Hours [2, 6]: 0 CFU/ml
- L. monocytogenes, Time 0 [2, 6]: 460 CFU/ml

Molecule: nonylphenol ethoxylate [12.5 ppm nonylphenol ethoxylate]
- L. mono count [4]: 20 cfu/mL
